Values of other authors in patent US8853212B2, “Substituted aminotetrahydrothiopyrans and derivatives thereof as dipeptidyl peptidase-IV inhibitors for the treatment of diabetes” (Merck Sharp & Dohme Corp, priority 2010, dated 2014).

How the values were obtained:
[1] = tested on: cardiac allograft; settings: rats; doubled from day 7
[2] = target: DPP-4 (Homo sapiens (Human), UniProt P27487)
[3] = tested on: hematopoiesis; settings: mouse, cyclophosphamide-induced neutropenia

DPP-4, sequence (P27487 39-766, species assumed): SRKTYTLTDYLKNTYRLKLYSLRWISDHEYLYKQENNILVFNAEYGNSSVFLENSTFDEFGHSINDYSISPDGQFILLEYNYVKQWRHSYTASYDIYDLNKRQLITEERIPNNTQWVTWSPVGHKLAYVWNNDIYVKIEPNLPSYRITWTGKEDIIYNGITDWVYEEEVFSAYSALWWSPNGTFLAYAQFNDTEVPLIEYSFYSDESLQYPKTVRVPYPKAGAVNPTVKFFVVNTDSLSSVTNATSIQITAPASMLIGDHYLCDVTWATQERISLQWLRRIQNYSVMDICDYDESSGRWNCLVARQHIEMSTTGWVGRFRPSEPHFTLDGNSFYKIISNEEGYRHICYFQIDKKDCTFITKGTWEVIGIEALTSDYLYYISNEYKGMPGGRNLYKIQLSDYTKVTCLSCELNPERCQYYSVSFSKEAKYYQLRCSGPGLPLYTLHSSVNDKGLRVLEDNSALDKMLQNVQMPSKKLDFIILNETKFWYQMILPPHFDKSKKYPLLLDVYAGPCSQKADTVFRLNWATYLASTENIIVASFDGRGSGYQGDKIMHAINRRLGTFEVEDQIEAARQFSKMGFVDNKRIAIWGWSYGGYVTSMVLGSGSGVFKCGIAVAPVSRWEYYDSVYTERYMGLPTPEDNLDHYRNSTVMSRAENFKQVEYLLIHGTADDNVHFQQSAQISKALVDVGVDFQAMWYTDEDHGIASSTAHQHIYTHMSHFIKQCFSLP

## CC(C)N1CCC(c2ccccc2)(c2ccccc2)CC1 [Prodipine, Pro-Pro-diphenyl-phosphonate]
[1]
  cardiac allograft survival: 14 day

## diprotin A
[2]
  degradation of GRF in plasma to GRF[3-44]: prevented

## CC(C)[C@H](N)C(=O)N1CCC[C@H]1B(O)O [Val-Bono-Pro]
[3]
  hematopoiesis: stimulated hematopoiesis
